Measurements taken from the NIST ThermoML archive (doi:10.1016/j.jct.2011.06.016).
± gives the expanded uncertainty stated by the source.

Experiment: refractive index (Na D-line) (dimensionless)
Details: 101.33 kPa, Liquid, Standard Abbe refractometry

Row | Structure (SMILES) | refractive index (298.15 K) | refractive index (313.15 K)
1 | CCO [ethanol] | 1.3625 ± 0.0007 | –
2 | CCCCCCCCCCCCCCCC(=O)OCC [ethyl hexadecanoate] | 1.437 ± 0.001 | –
3 | CCCCCCCCCCCCCCCCCC(=O)OCC [ethyl octadecanoate] | – | 1.436 ± 0.001
4 | OCC(O)CO [glycerol] | 1.471 ± 0.001 | –
5 | O [water] | 1.333 ± 0.001 | –
